In ChEMBL document CHEMBL3045764, “Synthesis of Both Enantiomers of Altholactone, Isoaltholactone and 5-Hydroxygoniothalamin from Tri-O-acetyl-D-glucal, and Their Biological Activities” (J Pestic Sci, 2001):

Experiments:
Lactuca sativa = assay: Inhibition of Lactuca sativa (lettuce) seed germination assessed as elongation of root by measuring germination rate (reference value: 75%); type: functional
[1] = Toxicity in Artemia salina (brine shrimp) assessed as death rate after 1.5 days (reference value: 5%); type: organism-based; conditions: in vivo, read-out: Activity

Structure (SMILES) | inhibition (INH) (Lactuca sativa) [%] | mortality at 36 h [1] [%]
O=C1C=C[C@H]2O[C@H](c3ccccc3)[C@H](O)[C@@H]2O1 | 56 | 31
O=C1C=C[C@H]2O[C@H](c3ccccc3)[C@@H](O)[C@@H]2O1 | 63 | 48
O=C1C=C[C@@H]2O[C@H](c3ccccc3)[C@H](O)[C@@H]2O1 [(+)-ISOALTHOLACTONE] | 25 | 13
O=C1C=C[C@@H]2O[C@H](c3ccccc3)[C@@H](O)[C@@H]2O1 [ALTHOLACTONE] | 50 | 40
O=C1C=C[C@H]2O[C@@H](c3ccccc3)[C@H](O)[C@H]2O1 [ENT-ALTHOLACTONE] | 5 | 31
O=C1C=C[C@H]2O[C@H](c3ccccc3)[C@@H](O)[C@H]2O1 [ENT-ISOALTHOLACTONE] | 69 | 8
